These results are taken from patent US11884643B2, “Substituted thiophenecarboxamides and analogues as antibacterials agents” (priority 2018, dated 2024).

Read-outs that look alike come from different tables or passages of the source.

Data set [1] in a line: Log P by HPLC on reversed phase columns (EEC directive 79/831 Annex V.A8). Type of data set: physicochemical. On the procedure: If more than one Log P value is available within the same method, all the values are given and separated by “+”. Calibration was done with straight-chain alkan2-ones (with 3 to 16 carbon atoms) with known Log P values (measurement of Log P values using retention times with linear interpolation between successive alkanones). Lambda-max-values were determined using UV-spectra from 200 nm to 400 nm and the peak values of the chromatographic signals.

Data set [2] concerns Xanthomonas campestris pv. Campestris. The data set is described as follows: Xanthomonas campestris pv. Campestris in vitro cell test (bacteria growth in liquid culture). The format is cell-based. Particulars: 20 ppm of tested compound, 24 h of incubation. On the procedure:
Culture medium: LB broth medium (Luria Broth Miller) Sigma
Inoculum: bacteria suspension
Compounds to be tested were solubilized in DMSO and the solution used to prepare the required range of concentrations. The final concentration of DMSO used in the assay was ≤1%.
Inoculum was prepared from a pre-culture of bacteria grown in liquid medium and diluted to the desired optical density (OD).
Compounds were evaluated for their ability to inhibit bacteria growth in liquid culture assay. The compounds were added in the desired concentrations to culture medium containing the bacteria suspension. After 24 h of incubation, the efficacy of compounds was determined by spectrometric measurement of bacteria growth. Inhibition was determined by comparing the absorbance values in wells containing the compounds with the absorbance in control wells without compounds.

[3] abbreviates: reversed phase HPLC columns, method [a]: LC-UV, acidic range, 0.1% formic acid in water and acetonitrile as eluent, read-out: LogP.
Setting [4] is: reversed phase HPLC columns, value given in preparation example, method letter not indicated, read-out: Log P.
Setting [5] is: method [a]: LC-UV, acidic range, 0.1% formic acid in water and acetonitrile as eluent.

Consider `CCOC(=O)C1(NC(=O)c2sc(Cl)c(Cl)c2C)CC1` [XXI.11, ethyl 1-{[(4,5-dichloro-3-methyl-2-thienyl)carbonyl]amino}cyclopropanecarboxylate], for which the chromatographic logP in data set [1] (setting [3]) and in data set [1] (setting [4]) was 3.16 each time.
For `O=C1OC(c2sc(Br)c(Br)c2F)=NC12CC2` [III.01, 5-(4,5-dibromo-3-fluoro-2-thienyl)-6-oxa-4-azaspiro[2.4]hept-4-en-7-one], the “direct activity (inhibition of bacteria growth)” value in data set [2] is “no direct activity”. Besides, the values for the chromatographic logP in data set [1] (Log P) and in data set [1] (LogP) were 3.58 and 3.57, respectively.
Consider `O=C1OC(c2sc(Br)c(Br)c2Br)=NC12CC2` [III.06], for which the LogP in data set [1] (setting [5]) is 4.15^[a].
Regarding `CCOC(=O)C1(NC(=O)c2sc(Cl)c(Cl)c2I)CC1` [XXI.08, ethyl 1-{[(4,5-dichloro-3-iodo-2-thienyl)carbonyl]amino}cyclopropanecarboxylate], in data set [1] (setting [3]), the chromatographic logP was found to be 3.39.
As for `O=C1OC(c2sc(Br)c(Br)c2Cl)=NC12CC2` [III.08], the LogP in data set [1] (setting [5]) was 4.08^[a].
The same measure, in the same setting: the figure for `Cc1c(C(=O)NC2(C(=O)O)CC2)sc(Cl)c1Cl` [XXI.14] is 2.17^[a].
As for `Cc1c(C2=NC3(CC3)C(=O)O2)sc(Cl)c1Cl` [III.04], the “direct activity (inhibition of bacteria growth)” value in data set [2] was “no direct activity”. Moreover, the LogP in data set [1] (setting [5]) was 4.30^[a].
For orientation: Log P means a log measure of how a compound divides between an organic and an aqueous phase. Low readings indicate lower lipophilicity, high ones higher lipophilicity. Turning to `CCOC(=O)C1(NC(=O)c2sc(Cl)c(Cl)c2N)CC1` [XXVIII.01, ethyl 1-{[(3-amino-4,5-dichloro-2-thienyl)carbonyl]amino}cyclopropanecarboxylate], the LogP in data set [1] (setting [5]) was 2.77^[a]. For the same compound, in data set [1] (value given in preparation example, method letter not indicated), the lipophilicity (Log P) worked out at 2.77.
Regarding `COC(=O)c1sc(Cl)c(Cl)c1Br` [XXIIa.09], the LogP in data set [1] (setting [5]) was 4.11^[a].
For `Cc1c(C2=NC3(CC3)C(=O)O2)sc(Br)c1Br` [III.02], the “direct activity (inhibition of bacteria growth)” value in data set [2] was “no direct activity”. In addition, the LogP in data set [1] (setting [5]) is 4.33^[a].
With `O=C1OC(c2sc(Cl)c(Cl)c2Br)=NC12CC2` [III.07], the LogP in data set [1] (setting [5]) was 4.12^[a].
As for `CCOC(=O)C1(NC(=O)c2sc(Cl)c(Cl)c2Cl)CC1` [XXI.05, ethyl 1-{[(3,4,5-trichloro-2-thienyl)carbonyl]amino}cyclopropanecarboxylate], the LogP in data set [1] (setting [5]) was 3.41^[a].
The same measure, in the same setting: in the case of `Cl.Nc1c(C(=O)O)sc(Cl)c1Cl` [XXXa.02, 3-amino-4,5-dichlorothiophene-2-carboxylic acid hydrochloride (1:1)] it was 2.05^[a]; in that of `O=C(O)c1sc(Cl)c(Cl)c1Br` [XXIIa.06], 2.52^[a]; in that of `CC(C)COC(=O)c1sc(Cl)c(Cl)c1Cl` [XXIIa.13], 5.75^[a].
`O=C(NC1(C(=O)O)CC1)c1sc(Cl)c(Cl)c1Br` [XXI.22]: in data set [1] (setting [5]), the LogP is 2.37^[a].
On to `O=C1OC(c2sc(Cl)c(Cl)c2Cl)=NC12CC2` [III.03], for which the “direct activity (inhibition of bacteria growth)” value in data set [2] is listed as “no direct activity”. In data set [1] (setting [5]), the LogP is 4.01^[a].
As for `O=C(NC1(C(=O)O)CC1)c1sc(Br)c(Br)c1F` [XXI.03, 1-{[(4,5-dibromo-3-fluoro-2-thienyl)carbonyl]amino}cyclopropanecarboxylic acid], the chromatographic logP was 2.14 in data set [1] (setting [3]) and 2.15 in data set [1] (setting [4]).
Take `CCOC(=O)C1(NC(=O)c2sc(Br)c(Br)c2F)CC1` [XXI.01, ethyl 1-{[(4,5-dibromo-3-fluoro-2-thienyl)carbonyl]amino}cyclopropanecarboxylate]: the chromatographic logP in data set [1] (setting [3]) came out at 3.17; in data set [1] (setting [4]), 3.15.
Take `O=C1OC(c2sc(Cl)c(Cl)c2I)=NC12CC2` [III.09]: the LogP in data set [1] (setting [5]) was 4.23^[a].
For the compound `O=C1OC(c2sc(Br)c(Br)c2I)=NC12CC2` [III.05], in data set [2], the “direct activity (inhibition of bacteria growth)” value is given as “no direct activity”. The LogP in data set [1] (setting [5]) is 4.30^[a].
